Consider 29 compounds from US20250270190A1, “KIT INHIBITORS” (BLUEPRINT MEDICINES CORPORATION, priority 2022, published 2025).

Counter-ions that a name gives are not always drawn. Where only a bound is given, the exact number is not on record here.

T1 sequence (P10721 26-976 V560G/V654A): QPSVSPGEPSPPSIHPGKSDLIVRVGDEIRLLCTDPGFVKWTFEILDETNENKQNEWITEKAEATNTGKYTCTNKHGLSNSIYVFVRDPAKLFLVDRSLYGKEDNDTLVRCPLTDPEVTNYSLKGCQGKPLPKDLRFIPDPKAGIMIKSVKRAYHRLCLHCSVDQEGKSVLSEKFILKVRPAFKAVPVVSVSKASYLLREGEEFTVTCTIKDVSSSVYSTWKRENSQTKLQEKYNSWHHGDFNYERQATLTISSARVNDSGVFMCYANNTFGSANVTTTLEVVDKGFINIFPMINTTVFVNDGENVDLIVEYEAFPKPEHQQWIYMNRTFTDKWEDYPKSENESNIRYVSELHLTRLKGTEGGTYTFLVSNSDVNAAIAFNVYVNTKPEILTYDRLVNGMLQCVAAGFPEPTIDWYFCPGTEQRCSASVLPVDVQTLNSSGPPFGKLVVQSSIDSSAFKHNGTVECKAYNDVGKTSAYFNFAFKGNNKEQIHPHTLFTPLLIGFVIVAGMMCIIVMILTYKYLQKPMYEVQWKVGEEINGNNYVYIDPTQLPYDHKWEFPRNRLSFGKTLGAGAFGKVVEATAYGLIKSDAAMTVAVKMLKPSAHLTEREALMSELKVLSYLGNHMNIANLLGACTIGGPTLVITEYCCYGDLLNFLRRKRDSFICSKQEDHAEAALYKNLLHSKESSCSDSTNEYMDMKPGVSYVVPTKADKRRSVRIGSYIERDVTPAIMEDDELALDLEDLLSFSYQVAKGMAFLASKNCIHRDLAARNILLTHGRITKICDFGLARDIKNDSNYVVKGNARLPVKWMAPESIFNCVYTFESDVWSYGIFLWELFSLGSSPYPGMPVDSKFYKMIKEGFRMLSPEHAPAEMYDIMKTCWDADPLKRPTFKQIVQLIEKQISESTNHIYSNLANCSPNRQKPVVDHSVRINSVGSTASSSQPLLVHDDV

This experiment concerns the target T1, c-kit autophosphorylation (Phospho c-Kit Tyr721) in HMC 1.1 (exon 11/13) cells, V654A (Homo sapiens, UniProt P10721, V560G/V654A).
T1 construct: endogenous in cells; host or cells: HMC 1.1 (exon 11/13) cells
The experiment in a line: pKIT Meso Scale Discovery (MSD) assay, inhibition of autophosphorylation of KIT, HMC1.1_V654A. Conditions: Table 1, cell line not named for Table 1, b1056 names pKIT HMC1.1_V654A, read-out: Code (IC50 for inhibition of autophosphorylation of KIT, pKIT MSD assay). It is filed as cell-based. The method, boiled down:
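HMC1.1 cells were serum-starved for 4 h in serum-free, iron-free, phenol red-free IMDM, then treated with compound in dose-response for 90 min at 37 °C. Staurosporine and DMSO served as controls. Lysates were analysed by MSD electrochemiluminescence immunoassay for phospho-c-Kit Tyr721, and % inhibition of autophosphorylation was derived.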
Turning to `C[C@@H](Oc1cc(Nc2cc(N)nc(C(F)F)n2)ncc1-c1cnn(C)c1)C(F)(F)F` [Compound 163, (R)-2-(difluoromethyl)-N4-(5-(1-methyl-1H-pyrazol-4-yl)-4-((1,1,1-trifluoropropan-2-yl)oxy)pyridin-2-yl)pyrimidine-4,6-diamine], the half-maximal inhibitory concentration (IC50) is less than 10 nM.

With `Nc1cc(Nc2cc(OC3CC3)c(-c3cnn(CC4CCO4)c3)cn2)nc(C(F)F)n1` (centres unmarked) [Compound 166, N4-(4-cyclopropoxy-5-(1-(oxetan-2-ylmethyl)-1H-pyrazol-4-yl)pyridin-2-yl)-2-(difluoromethyl)pyrimidine-4,6-diamine], the half-maximal inhibitory concentration (IC50) was less than 10 nM.

`Nc1cc(Nc2cc(OC3COC3)c(-c3cnn(C4CNC4)c3)cn2)nc(C(F)F)n1` [Compound 168, N4-(5-(1-(azetidin-3-yl)-1H-pyrazol-4-yl)-4-(oxetan-3-yloxy)pyridin-2-yl)-2-(difluoromethyl)pyrimidine-4,6-diamine formate]: the IC50 is more than 40 nM.

For `CC(C)(N)Cn1cc(-c2cnc(Nc3cc(N)nc(C(F)F)n3)cc2OC2CC2)cn1` [Compound 169, N4-(5-(1-(2-amino-2-methylpropyl)-1H-pyrazol-4-yl)-4-cyclopropoxypyridin-2-yl)-2-(difluoromethyl)pyrimidine-4,6-diamine], the 50% inhibitory concentration (IC50) was less than 10 nM.

As to `CNC(C)Cn1cc(-c2cnc(Nc3cc(N)nc(C(F)F)n3)cc2OC2CC2)cn1` (centres unmarked) [Compound 170, N4-(4-cyclopropoxy-5-(1-(2-(methylamino)propyl)-1H-pyrazol-4-yl)pyridin-2-yl)-2-(difluoromethyl)pyrimidine-4,6-diamine], the IC50 was less than 10 nM.

As to `CN(C)CCn1cc(-c2cnc(Nc3cc(N)nc(C(F)F)n3)cc2OC2CC2)cn1` [Compound 171, N4-(4-cyclopropoxy-5-(1-(2-(dimethylamino)ethyl)-1H-pyrazol-4-yl)pyridin-2-yl)-2-(difluoromethyl)pyrimidine-4,6-diamine], the IC50 was less than 10 nM.

As to `Cn1cc(-c2cnc(Nc3cc(N)nc(C(F)F)n3)cc2OCC2CCCCO2)cn1` (centres unmarked) [Compound 172, 2-(difluoromethyl)-N4-(5-(1-methyl-1H-pyrazol-4-yl)-4-((tetrahydro-2H-pyran-2-yl)methoxy)pyridin-2-yl)pyrimidine-4,6-diamine], the half-inhibitory concentration (IC50) was 10 to 40 nM.

Regarding `CC(C)(O)Cn1cc(-c2cnc(Nc3cc(N)nc(C(F)F)n3)cc2OC2CC2)cn1` [Compound 173, 1-(4-(6-((6-amino-2-(difluoromethyl)pyrimidin-4-yl)amino)-4-cyclopropoxypyridin-3-yl)-1H-pyrazol-1-yl)-2-methylpropan-2-ol], the IC50 is less than 10 nM.

In the case of `Nc1cc(Nc2cc(NC3CC3)c(C(=O)NC34CC(CO)(C3)C4)cn2)nc(C(F)F)n1` [Compound 174, 6-((6-amino-2-(difluoromethyl)pyrimidin-4-yl)amino)-4-(cyclopropylamino)-N-(3-(hydroxymethyl)bicyclo[1.1.1]pentan-1-yl)nicotinamide], the half-maximal inhibitory concentration (IC50) was less than 10 nM.

`CNCCn1cc(-c2cnc(Nc3cc(N)nc(C(F)F)n3)cc2OC2COC2)cn1` [Compound 175, 2-(difluoromethyl)-N4-(5-(1-(2-(methylamino)ethyl)-1H-pyrazol-4-yl)-4-(oxetan-3-yloxy)pyridin-2-yl)pyrimidine-4,6-diamine]: the IC50 is more than 40 nM.

As for `C[C@@H](CF)Nc1cc(Nc2cc(N)nc(C(F)F)n2)ncc1C(=O)NCc1cocn1` [Compound 176, (S)-6-((6-amino-2-(difluoromethyl)pyrimidin-4-yl)amino)-4-((1-fluoropropan-2-yl)amino)-N-(oxazol-4-ylmethyl)nicotinamide], the IC50 is less than 10 nM.

For the compound `C[C@H](CF)Nc1cc(Nc2cc(N)nc(C(F)F)n2)ncc1C(=O)NCc1cocn1` [Compound 177, (R)-6-((6-amino-2-(difluoromethyl)pyrimidin-4-yl)amino)-4-((1-fluoropropan-2-yl)amino)-N-(oxazol-4-ylmethyl)nicotinamide], the IC50 is 10 to 40 nM.

For the compound `Cn1cc(-c2cnc(Nc3cc(N)nc(C(F)F)n3)cc2OCc2cccc(N)c2)cn1` [Compound 178, N4-(4-((3-aminobenzyl)oxy)-5-(1-methyl-1H-pyrazol-4-yl)pyridin-2-yl)-2-(difluoromethyl)pyrimidine-4,6-diamine], the concentration for half-maximal inhibition (IC50) was less than 10 nM.

`CN(C)CCn1cc(-c2cnc(Nc3cc(N)nc(C(F)F)n3)cc2OC(F)F)cn1` [Compound 179, N4-(4-(difluoromethoxy)-5-(1-(2-(dimethylamino)ethyl)-1H-pyrazol-4-yl)pyridin-2-yl)-2-(difluoromethyl)pyrimidine-4,6-diamine]: the half-inhibitory concentration (IC50) was less than 10 nM.

With `CNC(C)Cn1cc(-c2cnc(Nc3cc(N)nc(C(F)F)n3)cc2OC(F)F)cn1` (centres unmarked) [Compound 180, N4-(4-(difluoromethoxy)-5-(1-(2-(methylamino)propyl)-1H-pyrazol-4-yl)pyridin-2-yl)-2-(difluoromethyl)pyrimidine-4,6-diamine], the IC50 was less than 10 nM.

Take `CC(C)(O)Cn1cc(-c2cnc(Nc3cc(N)nc(C(F)F)n3)cc2OC(F)F)cn1` [Compound 181, 1-(4-(6-((6-amino-2-(difluoromethyl)pyrimidin-4-yl)amino)-4-(difluoromethoxy)pyridin-3-yl)-1H-pyrazol-1-yl)-2-methylpropan-2-ol]: the IC50 is less than 10 nM.

On to `Nc1cc(Nc2cc(OC3CC3)c(-c3cnn(CCN4CCC4)c3)cn2)nc(C(F)F)n1` [Compound 182, N4-(5-(1-(2-(azetidin-1-yl)ethyl)-1H-pyrazol-4-yl)-4-cyclopropoxypyridin-2-yl)-2-(difluoromethyl)pyrimidine-4,6-diamine], for which the half-maximal inhibitory concentration (IC50) was less than 10 nM.

In the case of `CN1CC(n2cc(-c3cnc(Nc4cc(N)nc(C(F)F)n4)cc3OC3COC3)cn2)C1` [Compound 183, 2-(difluoromethyl)-N4-(5-(1-(1-methylazetidin-3-yl)-1H-pyrazol-4-yl)-4-(oxetan-3-yloxy)pyridin-2-yl)pyrimidine-4,6-diamine], the half-inhibitory concentration (IC50) is more than 40 nM.

Consider `CNC(C)(C)Cn1cc(-c2cnc(Nc3cc(N)nc(C(F)F)n3)cc2OC2CC2)cn1` [Compound 184, N4-(4-cyclopropoxy-5-(1-(2-methyl-2-(methylamino)propyl)-1H-pyrazol-4-yl)pyridin-2-yl)-2-(difluoromethyl)pyrimidine-4,6-diamine], for which the 50% inhibitory concentration (IC50) is less than 10 nM.

As for `CC(C)(O)CCn1cc(-c2cnc(Nc3cc(N)nc(C(F)F)n3)cc2OC2CC2)cn1` [Compound 185, 4-(4-(6-((6-amino-2-(difluoromethyl)pyrimidin-4-yl)amino)-4-cyclopropoxypyridin-3-yl)-1H-pyrazol-1-yl)-2-methylbutan-2-ol], the IC50 is less than 10 nM.

Regarding `C[C@@H](CF)Nc1cc(Nc2cc(N)nc(C(F)F)n2)ncc1C(=O)NCc1ccccn1` [Compound 186, (S)-6-((6-amino-2-(difluoromethyl)pyrimidin-4-yl)amino)-4-((1-fluoropropan-2-yl)amino)-N-(pyridin-2-ylmethyl)nicotinamide], the IC50 is less than 10 nM.

With `C[C@H](CF)Nc1cc(Nc2cc(N)nc(C(F)F)n2)ncc1C(=O)NCc1ccccn1` [Compound 187, (R)-6-((6-amino-2-(difluoromethyl)pyrimidin-4-yl)amino)-4-((1-fluoropropan-2-yl)amino)-N-(pyridin-2-ylmethyl)nicotinamide], the concentration for half-maximal inhibition (IC50) lay in the range of 10 to 40 nM.

With `C[C@@H](CF)Nc1cc(Nc2cc(N)nc(C(F)F)n2)ncc1C(=O)NC12CC(CO)(C1)C2` [Compound 188, (S)-6-((6-amino-2-(difluoromethyl)pyrimidin-4-yl)amino)-4-((1-fluoropropan-2-yl)amino)-N-(3-(hydroxymethyl)bicyclo[1.1.1]pentan-1-yl)nicotinamide], the IC50 was in the range of 10 to 40 nM.

Regarding `C[C@H](CF)Nc1cc(Nc2cc(N)nc(C(F)F)n2)ncc1C(=O)NC12CC(CO)(C1)C2` [Compound 189, (R)-6-((6-amino-2-(difluoromethyl)pyrimidin-4-yl)amino)-4-((1-fluoropropan-2-yl)amino)-N-(3-(hydroxymethyl)bicyclo[1.1.1]pentan-1-yl)nicotinamide], the IC50 is 10 to 40 nM.

`CC(CF)Oc1cc(Nc2cc(N)nc(C(F)F)n2)ncc1-c1cnn(CC(C)(C)O)c1` (centres unmarked) [Compound 190, 1-(4-(6-((6-amino-2-(difluoromethyl)pyrimidin-4-yl)amino)-4-((1-fluoropropan-2-yl)oxy)pyridin-3-yl)-1H-pyrazol-1-yl)-2-methylpropan-2-ol]: the IC50 was less than 10 nM.

`Nc1cc(Nc2cc(OC(F)F)c(-c3cnn(CCN4CCC4)c3)cn2)nc(C(F)F)n1` [Compound 191, N4-(5-(1-(2-(azetidin-1-yl)ethyl)-1H-pyrazol-4-yl)-4-(difluoromethoxy)pyridin-2-yl)-2-(difluoromethyl)pyrimidine-4,6-diamine]: the IC50 is less than 10 nM.

`CN1CCC(n2cc(-c3cnc(Nc4cc(N)nc(C(F)F)n4)cc3OC(F)F)cn2)C1` (centres unmarked) [Compound 192, N4-(4-(difluoromethoxy)-5-(1-(1-methylpyrrolidin-3-yl)-1H-pyrazol-4-yl)pyridin-2-yl)-2-(difluoromethyl)pyrimidine-4,6-diamine]: the IC50 is less than 10 nM.

For `CNC(C)(C)Cn1cc(-c2cnc(Nc3cc(N)nc(C(F)F)n3)cc2OC(F)F)cn1` [Compound 193, N4-(4-(difluoromethoxy)-5-(1-(2-methyl-2-(methylamino)propyl)-1H-pyrazol-4-yl)pyridin-2-yl)-2-(difluoromethyl)pyrimidine-4,6-diamine], the IC50 is less than 10 nM.

For the compound `CN(C)CCn1cc(-c2cnc(Nc3cc(N)nc(C(F)F)n3)cc2OC(F)(F)F)cn1` [Compound 194, 2-(difluoromethyl)-N4-(5-(1-(2-(dimethylamino)ethyl)-1H-pyrazol-4-yl)-4-(trifluoromethoxy)pyridin-2-yl)pyrimidine-4,6-diamine], the 50% inhibitory concentration (IC50) was less than 10 nM.

A word on the IC50: it is the point on the concentration scale where inhibition reaches its midpoint.
